Data from patent EP0415924B1, “REGULATION OF CELL PROLIFERATION AND DIFFERENTIATION USING PEPTIDES” (HOLICK, Michael F, priority 1987, dated 1996).

How the values were obtained:
[1] = tested on: cultured human keratinocytes; assay: Keratinocyte culture: counts of total cells and basal cells after one week of dosing; format: cell-based; details: seven days, dose-dependent, Figures 2-5
Description: Keratinocytes were grown in culture as follows. NIH 3T3 cells were plated at 0.5 x 10⁵ cells per 35-mm tissue-culture dish, and two days later were lethally irradiated with a cobalt-60 source (5000 rads). Keratinocytes were obtained from neonatal foreskin after overnight trypsinization at 4°C and treatment with 0.02% EDTA. Keratinocytes were plated in 2 ml of serum-free medium per dish on the lethally irradiated 3T3 cells. Each experiment was performed on primary or secondary keratinocyte cultures obtained from different skin samples. The serum-free medium consisted of Dulbecco's Modified Eagle's Medium (DMEM) with high (1.8 mM) concentration of calcium (M.A. Bioproducts, Walkersville, MD) containing 7 growth factors: epidermal growth factor (25 ng/ml); hydrocortisone (203 ng/ml); insulin (5 µg/ml); prostaglandin E₁ (50 ng/ml); transferrin (5 µg/ml; prostaglandin E₁ (50 ng/ml); cholera toxin (0.1 µg/ml); (Sigma Chemical Co., St. Louis, MO); and selenous acid (2 ng/ml) (Collaborative Research, Lexington, MA). At one week in culture, hydrocortisone and cholera toxin were removed from the medium, and the dishes were washed with 0.02% EDTA to remove any remaining 3T3 cells. […]
After seven days the cultures were evaluated for their total cell content, number of basal cells, and cornified envelopes as described above. […]

[2] = tested on: cultured human keratinocytes; assay: Keratinocyte differentiation: count of cornified envelopes after one week of dosing; format: cell-based; details: dose-dependent, relative to control cultures, Figures 6 and 7
Description: Keratinocytes were grown in culture as follows. NIH 3T3 cells were plated at 0.5 x 10⁵ cells per 35-mm tissue-culture dish, and two days later were lethally irradiated with a cobalt-60 source (5000 rads). Keratinocytes were obtained from neonatal foreskin after overnight trypsinization at 4°C and treatment with 0.02% EDTA. Keratinocytes were plated in 2 ml of serum-free medium per dish on the lethally irradiated 3T3 cells. Each experiment was performed on primary or secondary keratinocyte cultures obtained from different skin samples. The serum-free medium consisted of Dulbecco's Modified Eagle's Medium (DMEM) with high (1.8 mM) concentration of calcium (M.A. Bioproducts, Walkersville, MD) containing 7 growth factors: epidermal growth factor (25 ng/ml); hydrocortisone (203 ng/ml); insulin (5 µg/ml); prostaglandin E₁ (50 ng/ml); transferrin (5 µg/ml; prostaglandin E₁ (50 ng/ml); cholera toxin (0.1 µg/ml); (Sigma Chemical Co., St. Louis, MO); and selenous acid (2 ng/ml) (Collaborative Research, Lexington, MA). At one week in culture, hydrocortisone and cholera toxin were removed from the medium, and the dishes were washed with 0.02% EDTA to remove any remaining 3T3 cells.
In addition, 1,25-(OH)₂D₃ was tested, alone and in combination with PTH (7-34), and PTH (1-34) and PTH (7-34) were tested together. […]

[3] = tested on: canine adenylate cyclase system; details: cited from earlier work

Compound | total number of cells and the number of basal cells in the cultures [1] | total number of cornified envelopes (percent of control) [2] | activity relative to bovine PTH (1-34) ([3]; more active than bovine PTH (1-34)) | activity relative to human PTH (1-34) ([3]; more active than human PTH (1-34))
C=C1/C(=C\C=C2/CCC[C@]3(C)[C@@H]([C@H](C)CCCC(C)(C)O)CC[C@@H]23)C[C@@H](O)C[C@@H]1O [1,25(OH)₂D₃, 1,25-dihydroxyvitamin D₃] | in a dose-dependent manner decreased | increased, in a dose-dependent manner | – | –
Rat PTH (1-34): rat PTH 1-34 fragment, 5 amino acid sequence difference from the 1-34 region of human and bovine PTH | – | – | 2-4 fold | 8-10 fold
